What follows are compounds tested against T1, human chemokine receptor 2 isoform B (CCR2B) (Homo sapiens, UniProt P41597) (assay: Calcium mobilization assay (FLIPR, MCP-1 stimulated CHOK1-CCR2B-A5 cells)). Details: 20 nM MCP-1, antagonist activity, read-out: IC50 (inhibitor concentration required for 50% inhibition of specific calcium increases).
T1 construct: host or cells: CHO-K1 (CHOK1-CCR2B-A5)
T1 sequence (P41597 1-360 isoform P41597-2): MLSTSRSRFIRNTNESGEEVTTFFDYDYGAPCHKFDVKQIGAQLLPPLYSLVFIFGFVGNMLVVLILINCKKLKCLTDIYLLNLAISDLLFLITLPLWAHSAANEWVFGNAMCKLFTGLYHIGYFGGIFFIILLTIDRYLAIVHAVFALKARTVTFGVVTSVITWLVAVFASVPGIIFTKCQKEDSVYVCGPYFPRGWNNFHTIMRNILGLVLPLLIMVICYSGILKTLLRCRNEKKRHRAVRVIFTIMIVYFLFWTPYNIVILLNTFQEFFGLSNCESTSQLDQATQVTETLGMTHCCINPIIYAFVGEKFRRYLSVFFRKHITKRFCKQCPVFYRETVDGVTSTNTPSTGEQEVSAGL
Format: cell-based
Description: Calcium Mobilization Assay
CHOK1-CCR2B-A5 cells (from Euroscreen) stably overexpressing the human chemokine receptor 2 isoform B were cultured in Nutrient Hams F12 medium supplemented with 5% FBS, 100 U/ml penicillin, 100 μg/ml streptomycin, 400 μg/ml G418 and 5 μg/ml puromycin.
For the assay cells were grown overnight in 384-well black clear flat bottom polystyrene plates (Costar) at 37° C. at 5% CO2. After washing with DMEM, 20 mM Hepes, 2.5 mM probenecid, 0.1% BSA (DMEM assay buffer) cells were loaded with 4 μM Fluo-4 in the same DMEM assay buffer for 2 hours at 30° C. Excess dye was removed and cells were washed with DMEM assay buffer. 384-well compound plates were prepared with DMEM assay buffer/0.5% DMSO with or without various concentrations of test compounds. Usually compounds were tested for agonist and antagonist activity.
Test compounds were added to the assay plate and agonist activity was monitored as fluorescence for 80 seconds with a FLIPR (488 nm excitation; 510-570 nm emission; Molecular Devices). After 20-30 min. of incubation at 30° C., 20 nM MCP-1 (R&D; Roche) was added and fluorescence was monitored again for 80 seconds. Increases in intracellular calcium are reported as maximum fluorescence after agonist exposure minus basal fluorescence before exposure. Antagonist activity is indicated as inhibitor concentration required for 50% inhibition of specific calcium increases.

Compound | IC50 [nM]
CNC(=O)c1nc(C(=O)N2CCC(N3CCCC3)CC2)c(C)cc1-c1cccc(C(F)(F)F)c1 [Example 58, 5-Methyl-6-(4-pyrrolidin-1-yl-piperidine-1-carbonyl)-3-(3-trifluoromethyl-phenyl)-pyridine-2-carboxylic acid methylamide] | 190
Cc1cc(-c2cccc(C(F)(F)F)c2)c(C(=O)N2CCN(C(=O)OC(C)(C)C)CC2)nc1C(=O)N1CCC(N2CCCC2)CC1 [Example 59, 4-[5-Methyl-6-(4-pyrrolidin-1-yl-piperidine-1-carbonyl)-3-(3-trifluoromethyl-phenyl)-pyridine-2-carbonyl]-piperazine-1-carboxylic acid tert-butyl ester] | 490
Cc1cc(-c2cccc(C(F)(F)F)c2)c(C(=O)NC2CCNCC2)nc1C(=O)N1CCC(N2CCCC2)CC1 [Example 60, 5-Methyl-6-(4-pyrrolidin-1-yl-piperidine-1-carbonyl)-3-(3-trifluoromethyl-phenyl)-pyridine-2-carboxylic acid piperidin-4-ylamide] | 290
Cc1cc(-c2cccc(C(F)(F)F)c2)c(C(=O)N2CCNCC2)nc1C(=O)N1CCC(N2CCCC2)CC1 [Example 61, [5-Methyl-6-(4-pyrrolidin-1-yl-piperidine-1-carbonyl)-3-(3-trifluoromethyl-phenyl)-pyridin-2-yl]-piperazin-1-yl-methanone] | 320
Cc1cc(-c2cccc(C(F)(F)F)c2)c(Oc2cccnc2)nc1C(=O)N1CCC(N2CCCC2)CC1 [Example 62, [3-Methyl-6-(pyridin-3-yloxy)-5-(3-trifluoromethyl-phenyl)-pyridin-2-yl]-(4-pyrrolidin-1-yl-piperidin-1-yl)-methanone] | 69
Cc1cc(-c2cccc(C(F)(F)F)c2)c(=O)n(C)c1C(=O)N1CCC(N2CCCC2)CC1 [Example 63, 1,5-Dimethyl-6-(4-pyrrolidin-1-yl-piperidine-1-carbonyl)-3-(3-trifluoromethyl-phenyl)-1H-pyridin-2-one] | 32

Other lines, results leading:

IC50 [nM] | Compound
300 | Cc1cc(-c2cccc(C(F)(F)F)c2)c(S)nc1C(=O)N1CCC(N2CCCC2)CC1 [Example 64, [6-Mercapto-3-methyl-5-(3-trifluoromethyl-phenyl)-pyridin-2-yl]-(4-pyrrolidin-1-yl-piperidin-1-yl)-methanone; [3-Methyl-6-thioxo-5-(3-trifluoromethyl-phenyl)-1,6-dihydro-pyridin-2-yl]-(4-pyrrolidin-1-yl-piperidin-1-yl)-methanone (tautomers)]
7.6 | Cc1cc(-c2cccc(C(F)(F)F)c2)c2nnnn2c1C(=O)N1CCC(N2CCCC2)CC1 [Example 65, [6-Methyl-8-(3-trifluoromethyl-phenyl)-tetrazolo[1,5-a]pyridin-5-yl]-(4-pyrrolidin-1-yl-piperidin-1-yl)-methanone]
200 | Cc1cc(-c2cccc(C(F)(F)F)c2)c(OCCO)nc1C(=O)N1CCC(N2CCCC2)CC1 [Example 66, [6-(2-Hydroxy-ethoxy)-3-methyl-5-(3-trifluoromethyl-phenyl)-pyridin-2-yl]-(4-pyrrolidin-1-yl-piperidin-1-yl)-methanone]
59 | Cc1cc(-c2cc(C(F)(F)F)ccc2F)c[n+]([O-])c1C(=O)N1CCC(N2CCCC2)CC1 [Example 67, [5-(2-Fluoro-5-trifluoromethyl-phenyl)-3-methyl-1-oxy-pyridin-2-yl]-(4-pyrrolidin-1-yl-piperidin-1-yl)-methanone]

— patent publication US8227613B2, “Heteroaryl carboxamide derivatives” (Hoffmann-La Roche Inc., priority 2008, dated 2012)
